Series [1] has as its system normal breast epithelial cells (MCF-12A). Nature of the series: XTT viability assay, normal breast epithelial cells, 24-hour treatment with isolates. The class given is cell-based. The note with it: 24 hour incubation, highest dose assessed, FIG. 4. As for the experimental part: (§1) To calculate doses, the concentrations of the specific components for serving sizes of 15 mg, 30 mg and 60 mg per person per day for Δ7 mesembrenone, mesembrenone and non-alkaloids respectively were expressed as a fraction of total body fluid volume. In an attempt to account for digestive losses, these concentrations were halved, to reach cell-culture “equivalent” doses of 0.5 ug/ml, 1 ug/ml and 2 ug/ml respectively. Following standard laboratory practice, a range of doses around these was assessed. For clarity, only 3 concentrations per component are presented (doses of 10-fold smaller were also tested for ail components, but were not different from lowest doses presented herein and thus omitted).
(§2) Briefly, the procedure itself entailed 24-hour treatment of confluent cell culture samples of normal breast epithelial cells (MCF-12A) and breast epithelial carcinoma cells (MCF-7) with varying doses of the test products. At the end of this period, the mitochondrial viability of cells was assessed using the XTT assay method. Viability was measured and expressed relative to an appropriate control.
Results are illustrated in FIG. 4 of the accompanying drawings. Results are expressed as the percentage of viable cells after a 24 hour incubation with the test substances. […]
(Tetrazolium assays rely on reduction of a dye to a coloured formazan, in cell work by metabolically active cells.)

For series [2], the system named is breast epithelial carcinoma cells (MCF-7). Nature of the series: XTT viability assay, breast epithelial carcinoma cells, 24-hour treatment with isolates. The note with it: 24 hour incubation, FIG. 4; for effect on viability of cancer cells: 3 concentrations per component around 0.5, 1 and 2 ug/ml respectively. The class given is cell-based. As for the experimental part: as §1, §2
Results are illustrated in FIG. 4 of the accompanying drawings. Results are expressed as the percentage of viable cells after a 24 hour incubation with the test substances. Bars are means of repeated experiments (a minimum of 3 repeat experiments in triplicate) and error bars indicate standard deviations from the mean. Asterisk (*) indicate significant reductions in cancer cell viability.

Take `COc1ccc([C@@]23C=CC(=O)C[C@@H]2N(C)CC3)cc1OC` [mesembrenone]: in series [1], the “effect on normal cell survival” value was “seemed to limit growth of normal cells to some extent”. For the same molecule, the “effect on viability of cancer cells” value in series [2] is “clear dose-response effects”.

As for `COc1ccc(C23CCC(=O)C=C2N(C)CC3)cc1OC` (centres unmarked) [Δ7 mesembrenone], the “effect on normal cell survival” value in series [1] is given as “not affecting normal cell survival”. The “effect on viability of cancer cells” value in series [2] is “clear dose-response effects”. For the same molecule, the “anti-cancer effect compared with the other isolates” value in series [2] (Δ7 mesembrenone dosed 50% less than mesembrenone) is reported as “most potent anti-cancer effect”.

The values above are taken from patent US11173142B2, “Cancer treatment composition” (BOTANICAL RESOURCE HOLDINGS (PROPRIETARY) LIMITED, priority 2015, dated 2021).
